IC50 data for one compound are collected here from ChEMBL document CHEMBL1150170, “An antiplasmodial lignan from Euterpe precatoria” (J Nat Prod, 2002).

The test system of this test is Plasmodium falciparum. In words: Antiplasmodial activity against chloroquine-sensitive Plasmodium falciparum 3D7 by [3H]phenylalanine uptake. The class given is functional, organism-based.

Regarding `COc1cc([C@@H]2Oc3c(OC)cc(/C=C/COC(=O)c4ccccc4)cc3[C@H]2COC(=O)c2ccccc2)ccc1O` (racemic) [DEHYDRODICONIFERYL ALCOHOL DIBENZOATE], the concentration for half-maximal inhibition (IC50) (usually the concentration at which inhibition is half-maximal) came out at 12 µM.
